For 25 compounds, Dose, inhibition and DOSE results are on record in ChEMBL document CHEMBL1122227, “Synthesis and antiarrhythmic and parasympatholytic properties of substituted phenols. 1. Heteroarylamine derivatives” (1983).

Active and inactive are the calls of the source. No cut-off for these calls is given here.

Usually inhibition stands for the drop in the measured response relative to a control, in per cent.

The species named for experiment [1] is Canis familiaris. The experiment can be described thus: Active dose for antiarrhythmic activity in Harris dog. The class given is functional, Canis lupus familiaris, Heart.
For experiment [2], the target named is Muscarinic acetylcholine receptor (Rattus norvegicus) (UniProt P08482+P08483+P08485+P08911+P10980). Nature of the experiment: Percentage inhibition of field stimulated contraction guinea pig ileum (parasympatholytic activity)in presence of test compound (4 mg/L). The format is functional, tissue-based. To be noted: Cavia porcellus, target entry is the homologue from another species.

Experiment [3] relates to Canis familiaris. The experiment can be described thus: Active dose for antiarrhythmic activity in Harris dog. (incomplete restoration of normal sinus rhythm up to 2 mg/kg when death occurred); low activity. Further details: dose 2 mg/kg. To be noted: Canis lupus familiaris; Heart. The class given is functional, organism-based.
Experiment [4] deals with Canis familiaris. Nature of the experiment: Active dose for antiarrhythmic activity in Harris dog; inactive to 22 mg/kg. The format is functional, organism-based. Further details: dose 22 mg/kg. To be noted: Canis lupus familiaris; Heart.
Experiment [5] concerns Canis familiaris. The experiment can be described thus: Active dose for antiarrhythmic activity in Harris dog; inactive to 30 mg/kg. To be noted: Canis lupus familiaris; Heart. The class given is functional, organism-based. Further details: dose 30 mg/kg.
The test system of experiment [6] is Canis familiaris. The experiment can be described thus: Active dose for antiarrhythmic activity in Harris dog. (incomplete or no effect to restore sinus rhythm up to 30 mg/kg); low activity. The class given is functional, organism-based. More on the design: dose 30 mg/kg. To be noted: Canis lupus familiaris; Heart.
Experiment [7] deals with Canis familiaris. The experiment can be described thus: Active dose for antiarrhythmic activity in Harris dog.(partial restoration of normal sinus rhythm up to 12 mg/kg when loss of muscle tone occurred); low activity. The format is functional, organism-based. Further details: dose 12 mg/kg. Particulars: Canis lupus familiaris.
Experiment [8] relates to Canis familiaris. Nature of the experiment: Active dose for antiarrhythmic activity in Harris dog.(partial restoration of normal sinus rhythm up to 9 mg/kg when death occurred); low activity. To be noted: Canis lupus familiaris; Heart. The format is functional, organism-based. Further details: dose 9 mg/kg.

As to `Oc1c(CN2CCCC2)cc(Nc2nccc3ccccc23)cc1CN1CCCC1`, in experiment [1], the Dose came to 1.1 mg/kg. Moreover, the inhibition in experiment [2] is 48%. As for `COc1nnc(Nc2cc(CN3CCCC3)c(O)c(CN3CCCC3)c2)c2ccccc12`, the DOSE result in experiment [3] was “Partially active”. The inhibition in experiment [2] was determined as 84%. As for `Oc1c(CN2CCCC2)ccc(Nc2ncnc3ccccc23)c1CN1CCCC1`, the DOSE entry in experiment [4] is “inactive”. The inhibition in experiment [2] came out at 21%. Regarding `Clc1nnc(Nc2cc(CN3CCCC3)cc(CN3CCCC3)c2)c2ccccc12`, in experiment [1], the Dose amounted to 3 mg/kg. In addition, the inhibition in experiment [2] stood at 93%. The corresponding values for `CN(C)Cc1cc(Nc2nncc3ccccc23)cc(CN(C)C)c1O` are 14 mg/kg and 14%. On to `Oc1c(CN2CCCC2)cc(CNc2nnc(Cl)c3ccccc23)cc1CN1CCCC1`, for which the Dose in experiment [1] turned out to be 4.5 mg/kg. Besides, the inhibition in experiment [2] stood at 78%.

In experiment [1], `Oc1c(CN2CCCC2)cc(Nc2nncc3ccccc23)cc1CN1CCCC1` yielded a Dose of 1.5 mg/kg. Besides, the inhibition in experiment [2] is 83%. As for `Nc1cc(CN2CCCC2)c(O)c(CN2CCCC2)c1`, the DOSE result in experiment [5] is “inactive”. The inhibition in experiment [2] turned out to be 3%. As for `Oc1ccc(Nc2nnc(Cl)c3ccccc23)cc1CN1CCCC1`, the Dose in experiment [1] came to 17 mg/kg. Besides, the inhibition in experiment [2] turned out to be 65%. As to `Oc1c(CN2CCCC2)cc(Nc2nnc(Cl)c3ccccc23)cc1CN1CCCC1`, the Dose in experiment [1] came to 2.5 mg/kg. Further, in experiment [2], the inhibition was 76%.

Take `Oc1ccccc1Nc1ncnc2ccccc12`: the DOSE result in experiment [5] was “inactive”. For the same compound, in experiment [2], the inhibition was 48%. As to `Oc1ccc(Nc2ccc3ccccc3n2)cc1CN1CCCC1`, the Dose in experiment [1] came to 11 mg/kg. For the same compound, the inhibition in experiment [2] was 72%. With `Oc1ccc(Nc2ncnc3ccccc23)cc1`, in experiment [5], the DOSE result is “inactive”. Further, in experiment [2], the inhibition is 13%. On to `COc1cc2c(Nc3cc(CN4CCCC4)c(O)c(CN4CCCC4)c3)ncnc2c(OC)c1OC`, for which the DOSE entry in experiment [6] was “Partially active”. Besides, in experiment [2], the inhibition was 14%.

As to `Oc1ccc(Nc2nncc3ccccc23)cc1`, the DOSE result in experiment [5] is “inactive”. The inhibition in experiment [2] was determined as 23%. In turn, `Oc1c(CN2CCCC2)cc(Nc2ccnc3cc(C(F)(F)F)ccc23)cc1CN1CCCC1` came in with a Dose in experiment [1] of 3 mg/kg. Also, in experiment [2], the inhibition stood at 36%. As for `Oc1c(CN2CCCC2)cc(Nc2ncccn2)cc1CN1CCCC1`, in experiment [7], the DOSE result is “Partially active”. In addition, in experiment [2], the inhibition amounted to 6%. Regarding `Oc1c(CN2CCCC2)cc(Nc2ccnc3ccccc23)cc1CN1CCCC1`, the inhibition in experiment [2] amounted to 19%. The DOSE entry in experiment [8] is “Partially active”. In experiment [1], `Oc1c(CN2CCCC2)cc(Nc2ccncc2)cc1CN1CCCC1` showed a Dose of 8.5 mg/kg. Moreover, the inhibition in experiment [2] came out at 5%.

In experiment [1], `Oc1c(CN2CCCC2)cc(Nc2ccc3ccccc3n2)cc1CN1CCCC1` gave a Dose of 6 mg/kg. Moreover, in experiment [2], the inhibition turned out to be 50%. For `CC(=O)Nc1cc(CN2CCCC2)c(O)c(CN2CCCC2)c1`, in experiment [5], the DOSE entry was “inactive”. For `Oc1c(CN2CCCC2)cc(Nc2ccnc3cc(Cl)ccc23)cc1CN1CCCC1`, the DOSE entry in experiment [7] was “Partially active”. Besides, the inhibition in experiment [2] is 27%.

In the case of `Oc1c(CN2CCCC2)cc(Nc2ncnc3ccccc23)cc1CN1CCCC1` [CHANGROLIN], the Dose in experiment [1] was determined as 10.3 mg/kg. Further, the inhibition in experiment [2] was found to be 43%. In experiment [1], `Oc1c(CN2CCCC2)cc(Nc2ccc(Cl)nn2)cc1CN1CCCC1` yielded a Dose of 10.5 mg/kg. The inhibition in experiment [2] was 40%. Regarding `Cc1cc(Nc2cc(CN3CCCC3)c(O)c(CN3CCCC3)c2)c2ccccc2n1`, the Dose in experiment [1] worked out at 11 mg/kg.
